Where two headings read alike, the source gives them in different places.
Experiments:
[1] = test system: HMEC cells (primary human mammary breast epithelial cells); test: Cell proliferation assay (AlamarBlue), normal HMEC; format: cell-based; details: 48 h
Protocol: (§1) Cell culture. Four human cancer cell lines including A549 (lung carcinoma), BT20 (estrogen receptor-negative human breast adenocarcinoma), MCF-7 (estrogen receptor-positive human breast adenocarcinoma) and U2OS (human osteosarcoma) were purchased from American Type Culture Collection (ATCC). An A549 cell line that stably expresses Green Fluorescent Protein (GFP) was purchased from Cell BioLabs Inc. (San Diego, Calif., USA). A549, A549-GFP and BT20 cells were cultured in RPMI 1640 media (Sigma-Aldrich, St. Louis, Mo., USA), MCF7 cells were cultured in DMEM medium (ATCC, Manassas, Va., USA), and U20S cells were cultured in McCoy's 5A medium (ATCC, Manassas, Va., USA). As a control, HMEC cells (primary human mammary breast epithelial cells) were purchased from ATCC and cultured in McCoy's 5A medium. All medium contained 10% FBS (Sigma-Aldrich, St. Louis, Mo., USA) and 1% streptomycin and penicillin (Sigma-Aldrich, St. Louis, Mo., USA). These cells were incubated in a humid environment with 5% CO2 at 37° C.
(§2) Cell proliferation assay. The resazurin reduction reagent AlamarBlue (Invitrogen, Frederick, Md., USA) was used to evaluate the cytotoxicity of the compounds. Cells were plated at a density of 5×10^3 cells per well in 96-well microplates with 100 μl culture medium, and were allowed to attach for 16 h prior to treatment. Next, all the medium was replaced with medium containing the cis- or trans-suffruticosol D compounds at seven different concentrations: 320, 100, 32, 10, 3.2, 1.0, and 0.32 μM. The cells were placed in an incubator for 48 h at 37° C. Cells that were treated with medium-containing vehicle (1% DMSO) only serve as negative control. Subsequently, AlamarBlue solution was added to the medium and the cells were incubated in the CO2 incubator for 1 h. The fluorescent intensity change of the dye was measured at Ex 555 nm and Em 590 nm using a plate reader (Molecular Devices, Sunnyvale, Calif., USA). The cytotoxicity was examined by determining by IC50, the dose that inhibited 50% of cell growth, using GraphPad Prism software (GraphPad Software, La Jolla, Calif., USA).
Table 1. IC50 values of cis- and trans-suffruticosol D in selected cancer and normal cell lines. Cells were treated with various concentrations of cis- or trans-suffruticosol D for 48 h, and the viability of cells was evaluated with AlamarBlue dye.

[2] = test system: A549 (lung), BT20 (breast), MCF7 (breast) and U2OS (osteosarcoma) cancer cell lines; test: Cell proliferation assay, range over the four cancer cell lines; format: cell-based, human; details: for IC50: A549, BT20, MCF7, U2OS, 48 h, read-out: IC50 values in all four cancer cell lines (range); for selectivity (range over cancer cell lines): cancer cell lines versus normal HMEC
Protocol: as §1, §2

A549 cells = test: Apoptosis assay (Annexin V/7-AAD flow cytometry); format: cell-based, human; details: 24 h
Protocol: FIGS. 2A-E depict induction of apoptosis by cis- and trans-suffruticosol D in A549 cells. After 24 h treatment by cis- or trans-suffruticosol D, A549 cells were stained with Annexin V/7-amino-actinomycin D (7-AAD) and the percentage of apoptotic cells, as measured by fluorescence intensity, was assessed by flow cytometry. Cells treated with the vehicle, 1% dimethylsulfoxide, DMSO, only served as a negative control.
Apoptosis assay. The FlowCellect Annexin Red Kit (EMD Millipore, Billerica, Mass., USA) was used to determine the apoptosis rate in A549 cells according to the manufacturer's instructions. Briefly, A549 cells were plated in 96-well plates. After a 24 h treatment with cis- or trans-suffruticosol D at concentrations of 100, 32, and 10 μM, the floating and attached cells were collected for analysis. The cells were centrifuged at 700×g for 7 min and were resuspended in 100 μL Assay Buffer (EMD Millipore, Billerica, Mass., USA). Afterwards, the cells were stained with annexin-V for 15 min and 7-amino-actinomycin D (7-AAD) for 5 min, and examined with a Guava EasyCyte Flow Cytometer (EMD Millipore, Billerica, Mass., USA). Data was analyzed using Guava InCyte software.

[3] = test system: apoptotic proteins in A549 cells; test: Apoptosis antibody array; format: cell-based, human; details: 50 μM, 6 h
Protocol: F, Effect of cis- or trans-suffruticosol D on key regulatory proteins of apoptosis, Hsp60, Hsp70, survivin, and X-linked inhibitor of apoptosis protein (XIAP) (n=4).
Apoptosis antibody array. The Human Apoptosis Antibody Array Kit (RayBiotech, Inc., Norcross, Ga. USA) was used to evaluate apoptotic protein expression according to the manufacturer's instructions. A549 cells were plated at 8,000 cells/well intensity in a 96-well plate and then treated with cis or trans-suffruticosol D at a concentration of 50 μM for 6 h. The cells were lysed in lysis buffer with protease inhibitors. The cell lysates were concentrated using a protein concentration column (EMD Millipore, Billerica, Mass., USA) to a total protein concentration of 2 mg/ml. The samples were then diluted 10 fold with assay buffer and incubated with an array membrane for 2 h at room temperature, and washed with washing buffer five times. Subsequently, the cocktail of biotin-conjugated antibody mix was added to the membrane and incubated overnight at 4° C. The samples were then incubated with HRP-conjugated streptavidin for 2 h at room temperature and chemiluminescence substrate was used to detect the signal. Image Studio software (LI-COR Biotechnology) was used to quantify the intensity of each array dot and then normalized to the internal control.

[4] = test system: apoptotic proteins in A549 cells; test: Apoptosis antibody array; format: cell-based, human; details: 50 μM, 6 h; remark: listed apart in the source

Row | Compound | IC50 ([1]; listed as trans-SD) | IC50 ([1]; Homo sapiens, HMEC) | IC50 [2] | IC50 ([2]; Homo sapiens) | selectivity (range over cancer cell lines) [2] | A549 cells induced into apoptosis (A549 cells; 10 μM) | A549 cells induced into apoptosis (A549 cells; 32 μM) | A549 cells induced into apoptosis (A549 cells; 100 μM) | Hsp60 expression [3] | Hsp70 expression [3] | X-linked inhibitor of apoptosis protein (XIAP) expression [3] | survivin expression [3] | BH3 interacting-domain death agonist (BID) expression [4] | cyclin-dependent kinase inhibitor 1B (p27Kip1) expression [4] | death receptor 6 (DR6) expression [4] | IC50 [1] | IC50 ([1]; listed as cis-SD)
1 | Oc1ccc(/C=C/c2c3c(cc4c2[C@@H](c2cc(O)cc(O)c2)[C@H](c2ccc(O)cc2)O4)O[C@H](c2ccc(O)cc2)[C@@H]3c2cc(O)cc(O)c2)cc1 [trans-suffruticosol D] | 146 ± 2.7 µM | 270 µM | 9.93 to 20.8 µM | 9.93 to 15.8 µM | 5.8-20 fold | 30.1% | 39.8% | 41.9% | significant down regulation | significant down regulation | significant down regulation | significant down regulation | up-regulated | up-regulated | up-regulated | – | –
2 | Oc1ccc(C=Cc2c3c(cc4c2[C@@H](c2cc(O)cc(O)c2)[C@H](c2ccc(O)cc2)O4)O[C@H](c2ccc(O)cc2)[C@@H]3c2cc(O)cc(O)c2)cc1 [cis-suffruticosol D] | – | – | 13.4 to 46.8 µM | – | 9.2-14.7 fold | 22.2% | 27.1% | 45.3% | significant down regulation | significant down regulation | significant down regulation | significant down regulation | up-regulated | up-regulated | up-regulated | 146 µM | 269.5 ± 2.2 µM

Reference: patent publication US20180221329A1, “CIS- AND TRANS-SUFFRUTICOSOL D AS THERAPEUTIC AGENTS” (MIDDLE TENNESSEE STATE UNIVERSITY, priority 2015, published 2018)
